Test results from ChEMBL document CHEMBL4028806, “Modulators of Sphingosine-1-phosphate Pathway Biology: Recent Advances of Sphingosine-1-phosphate Receptor 1 (S1P1) Agonists and Future Perspectives” (J Med Chem, 2017).

Tests used:
[1] = species on record: Homo sapiens; test: Toxicity in human assessed as reduction in heart rate at 1.25 mg measured for 2 days; conditions: in vivo, 48 h
[2] = species on record: Homo sapiens; test: Toxicity in human assessed as reduction in heart rate measured every day for 9 days; conditions: 216 h
[3] = tested on: Trachea; test: Induction of tracheal constriction in Wistar rat at 10 uM
[4] = tested on: Trachea; test: Induction of tracheal constriction in Wistar rat at 1 uM
[5] = target: T1, Sphingosine 1-phosphate receptor 1 (Homo sapiens, UniProt P21453); test: Displacement of [33P]-S1P from human S1P1 receptor expressed in CHO cell membranes
[6] = target: T2, Sphingosine 1-phosphate receptor 3 (Homo sapiens, UniProt Q99500); test: Displacement of [33P]-S1P from human S1P3 receptor expressed in CHO cell membranes
[7] = Half life in po dosed Sprague-Dawley rat; type: ADME, organism-based; conditions: in vivo
[8] = Half life in iv dosed Sprague-Dawley rat; type: ADME, organism-based; conditions: in vivo
[9] = species on record: Homo sapiens; test: Toxicity in human assessed as reduction in heart rate at 10 mg measured 2 hrs post dose; conditions: in vivo
[10] = target: T2, Sphingosine 1-phosphate receptor 3; test: Displacement of [33P]-S1P from S1P3 receptor (unknown origin) expressed in CHOK1 cells after 60 mins by microbeta scintillation proximity assay; type: cell-based
[11] = target: T1, Sphingosine 1-phosphate receptor 1; test: Displacement of [33P]-S1P from S1P1 receptor (unknown origin) expressed in CHOK1 cells after 60 mins by microbeta scintillation proximity assay; type: cell-based
[12] = tested on: Mus musculus; test: Reduction in peripheral lymphocyte level in Swiss mouse at 10 mg/kg, po measured 24 hrs post dose; type: functional; parameters: scale not given: the % may be the effect or the level left
[13] = Oral bioavailability in mouse; type: ADME, organism-based; conditions: in vivo
[14] = tested on: Mus musculus; test: Reduction in peripheral lymphocyte level in mouse administered po measured 3 hrs post dose; type: functional
[15] = tested on: Mus musculus; test: Immunosuppressive activity in BALB/c mouse assessed as reduction in peripheral blood lymphocytes at 30 mg/kg, ip measured 4 days post dose; type: functional; parameters: scale not given: the % may be the effect or the level left
[16] = tested on: Mus musculus; test: Reduction in peripheral lymphocyte level in mouse administered iv measured 3 hrs post dose; type: functional
[17] = target: T2, Sphingosine 1-phosphate receptor 3; test: Agonist activity at human S1P3 receptor expressed in CHO cell membranes after 45 mins by [35S] GTPgammaS binding based scintillation counting analysis; type: functional
[18] = target: T1, Sphingosine 1-phosphate receptor 1; test: Agonist activity at human S1P1 receptor expressed in CHO cell membranes after 45 mins by [35S] GTPgammaS binding based scintillation counting analysis; type: functional
[19] = target: T1, Sphingosine 1-phosphate receptor 1; test: Displacement of [33P]-S1P from S1P1 receptor (unknown origin) expressed in CHO cell membranes
[20] = target: T2, Sphingosine 1-phosphate receptor 3; test: Displacement of [33P]-S1P from S1P3 receptor (unknown origin) expressed in CHO cell membranes
[21] = species on record: Homo sapiens; test: Toxicity in human assessed as reduction in heart rate at 10 mg measured on day 1; conditions: in vivo
[22] = tested on: Rattus norvegicus; test: Reduction in peripheral lymphocyte level in rat at 10 mg/kg, po measured 6 hrs post dose; type: functional; parameters: scale not given: the % may be the effect or the level left

T1 sequence (P21453 whole entry): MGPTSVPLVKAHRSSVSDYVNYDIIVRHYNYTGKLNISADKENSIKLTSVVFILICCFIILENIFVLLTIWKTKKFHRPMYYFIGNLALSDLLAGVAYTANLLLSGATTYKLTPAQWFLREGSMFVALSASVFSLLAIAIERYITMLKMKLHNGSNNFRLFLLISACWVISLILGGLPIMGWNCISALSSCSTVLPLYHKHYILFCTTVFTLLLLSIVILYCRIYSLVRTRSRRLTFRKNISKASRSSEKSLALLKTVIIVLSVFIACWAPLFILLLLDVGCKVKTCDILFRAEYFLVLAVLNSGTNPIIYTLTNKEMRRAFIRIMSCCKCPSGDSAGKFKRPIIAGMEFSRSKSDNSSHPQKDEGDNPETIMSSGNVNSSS
T2 sequence (Q99500 whole entry): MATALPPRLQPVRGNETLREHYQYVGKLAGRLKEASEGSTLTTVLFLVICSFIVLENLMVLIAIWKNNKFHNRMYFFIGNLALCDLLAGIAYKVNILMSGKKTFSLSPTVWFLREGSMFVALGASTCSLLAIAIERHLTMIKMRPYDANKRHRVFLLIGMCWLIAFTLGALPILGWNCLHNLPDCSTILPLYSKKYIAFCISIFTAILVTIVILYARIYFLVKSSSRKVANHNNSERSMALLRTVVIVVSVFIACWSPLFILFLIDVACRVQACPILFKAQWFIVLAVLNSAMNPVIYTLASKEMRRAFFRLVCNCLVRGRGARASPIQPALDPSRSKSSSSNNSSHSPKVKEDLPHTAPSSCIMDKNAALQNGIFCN

CCCCCCCCc1ccc(CCC(N)(CO)CO)cc1 [FINGOLIMOD]
Activity [1]: 8 to 11 bpm | Activity [2]: 1 to 2 bpm

CCc1cc(-c2noc(-c3cc(OC)nc(C(CC)CC)c3)n2)cc(C)c1OC[C@@H](O)CNC(=O)CO
Activity [3]: 100% | Activity [4]: < 5%

CCCCCCCCc1ccc(CC[C@@H](N)CCP(=O)(O)O)cc1
IC50 [5]: 8.4 nM | IC50 [6]: 280 nM

CC(C)Cc1ccc(-c2nc(-c3ccc(CN4CC(C(=O)O)C4)c(F)c3)no2)cc1 [ICANBELIMOD]
half-life [7]: 5.5 h | half-life [8]: 5.5 h

CCc1cc(-c2noc(-c3cc(CC(C)C)nc(OC)c3)n2)cc(C)c1OC[C@@H](O)CO
Activity [3]: 124% | Activity [4]: < 5%

CCc1cc(/C(C)=N/OCc2ccc(C3CCCCC3)c(C(F)(F)F)c2)ccc1CN1CC(C(=O)O)C1 [SIPONIMOD]
Activity [9]: 16 bpm

COCc1cc(-c2nc(-c3ccc(-c4ccc(C(=O)O)c(F)c4)cc3)no2)ccc1-c1ccccc1C
Ki [10]: 2200 nM | Ki [11]: 2.9 nM

O=C(O)C1(C(=O)O)CC(NCc2ccc(-c3noc(-c4ccc(-c5ccccc5)c(F)c4)n3)cc2)C1
Activity [12]: 86%

CCCCCCCCc1ccc(CN2CC(C(=O)O)C2)cc1
bioavailability [13]: > 70% | ED50 [14]: 5.2 mg/kg | IC50 [5]: 18 nM | IC50 [6]: 4900 nM

CCCCCCCCc1ccc2c(c1)CC(N)(CO)CC2 (centres undefined)
Activity [15]: 64%

CC(C)Cc1ccc(-c2nc(-c3ccc(CN4CC(C(=O)O)C4)cc3)no2)cc1
half-life [7]: 11 h | half-life [8]: 9 h

CCCCCCCCc1ccc(CC[C@@H](N)C[C@H](O)P(=O)(O)O)cc1
ED50 [16]: 0.15 mg/kg

N#CC1(NC(=O)[C@@H](O)c2ccc(-c3noc(-c4onc(-c5ccccc5)c4C(F)(F)F)n3)cc2)CC1
EC50 [17]: > 31000 nM | EC50 [18]: 15 nM

CCCCCCCCc1ccc(CNCCCC(=O)O)cc1
IC50 [5]: 7.7 nM | IC50 [6]: 1200 nM

CCCCCCCCc1ccc(CCC(N)(CO)CCP(=O)(O)O)cc1 (centres undefined)
IC50 [19]: 6 nM | ED50 [16]: 2.35 mg/kg | IC50 [20]: 7 nM

COCc1cc(-c2nc(-c3cccc(OCC(=O)O)c3)no2)ccc1-c1ccccc1C
Ki [10]: 1040 nM | Ki [11]: 0.8 nM

CCCCCCCCc1ccc(CNCCCP(C)(=O)O)cc1
IC50 [5]: 12 nM | IC50 [6]: 100 nM

CCc1cc(-c2noc(-c3cc(OC)nc(C(CC)CC)c3)n2)cc(C)c1OC[C@@H](O)CO
Activity [3]: 24% | Activity [4]: < 5%

CCCCCCCCc1ccc(CCC(N)COP(=O)(O)O)cc1 (centres undefined)
ED50 [16]: 0.06 mg/kg

CCc1cc(-c2noc(-c3cc(CC(C)C)nc(OC)c3)n2)cc(C)c1OC[C@@H](O)CNC(=O)CO
Activity [4]: 133%

CCC/N=C1\S/C(=C\c2ccc(OC[C@H](O)CO)c(Cl)c2)C(=O)N1c1ccccc1C [PONESIMOD]
Activity [21]: 10 to 12 bpm

CCc1cc(-c2nnc(-c3sc(C)c4c3C[C@@H]3[C@H]4C3(C)C)o2)cc(C)n1
Activity [22]: 77%
